Test results: the NIST ThermoML archive (doi:10.1021/je049973v)
Numbers after ± are expanded uncertainties.

Conditions: Liquid; for mass density: Vibrating tube method; for speed of sound: Pulse-echo method

CCCCCCCCCCCCCCCCCc1ccccc1 [heptadecane, 1-phenyl-]
Conditions | mass density, 343.15 K [kg/m3] | mass density, 353.15 K [kg/m3] | mass density, 363.15 K [kg/m3] | mass density, 373.15 K [kg/m3] | speed of sound, 343.15 K [m/s] | speed of sound, 353.15 K [m/s] | speed of sound, 363.15 K [m/s] | speed of sound, 373.15 K [m/s]
100 kPa | – | 814.43 ± 0.84 | 807.8 ± 0.84 | 801.11 ± 0.83 | – | 1255.2 ± 3.3 | 1223.6 ± 3.2 | 1193 ± 3.2
5000 kPa | – | 817.93 ± 0.85 | 811.3 ± 0.84 | 805.07 ± 0.84 | – | – | – | –
10000 kPa | – | 821.35 ± 0.86 | 815.14 ± 0.85 | 808.86 ± 0.85 | – | 1308.6 ± 3.3 | 1278.7 ± 3.3 | 1249.5 ± 3.3
15000 kPa | 830.75 ± 0.87 | 824.69 ± 0.87 | 818.57 ± 0.86 | 812.48 ± 0.86 | – | – | – | –
20000 kPa | 833.93 ± 0.88 | 827.9 ± 0.88 | 821.81 ± 0.87 | 815.93 ± 0.87 | 1387.3 ± 3.5 | 1359.3 ± 3.4 | 1330.3 ± 3.4 | 1302.6 ± 3.3
25000 kPa | 836.75 ± 0.89 | 830.86 ± 0.89 | 824.97 ± 0.88 | 819.17 ± 0.88 | – | – | – | –
30000 kPa | 839.62 ± 0.9 | 833.85 ± 0.9 | 828 ± 0.9 | 822.4 ± 0.89 | 1432.3 ± 3.6 | 1405.3 ± 3.5 | 1378 ± 3.5 | 1351.4 ± 3.4
35000 kPa | 842.4 ± 0.91 | 836.9 ± 0.91 | 830.94 ± 0.91 | 825.42 ± 0.91 | – | – | – | –
40000 kPa | 845.11 ± 0.92 | 839.55 ± 0.92 | 833.81 ± 0.92 | 828.43 ± 0.92 | 1475.5 ± 3.6 | 1448.5 ± 3.6 | 1422.2 ± 3.5 | 1396.8 ± 3.5
45000 kPa | 847.75 ± 0.94 | 842.1 ± 0.93 | 836.5 ± 0.93 | 831.28 ± 0.93 | – | – | – | –
50000 kPa | 850.31 ± 0.95 | 844.78 ± 0.95 | 839.26 ± 0.95 | 834.03 ± 0.95 | 1515.3 ± 3.7 | 1489.5 ± 3.7 | 1464 ± 3.6 | 1439.2 ± 3.6
55000 kPa | 852.73 ± 0.96 | 847.34 ± 0.96 | 841.95 ± 0.96 | 836.72 ± 0.96 | – | – | – | –
60000 kPa | 855.09 ± 0.97 | 849.77 ± 0.97 | 844.41 ± 0.97 | 839.37 ± 0.98 | 1553.3 ± 3.8 | 1528.3 ± 3.7 | 1503.3 ± 3.7 | 1479.7 ± 3.6
70000 kPa | – | – | – | – | 1589.5 ± 3.8 | 1564.8 ± 3.8 | 1541.1 ± 3.7 | 1517.7 ± 3.7
80000 kPa | – | – | – | – | 1624.1 ± 3.9 | 1600.1 ± 3.8 | 1576.4 ± 3.8 | 1553.8 ± 3.8
90000 kPa | – | – | – | – | 1657.2 ± 3.9 | 1633.4 ± 3.9 | 1610.7 ± 3.9 | 1588.6 ± 3.8
100000 kPa | – | – | – | – | 1688 ± 4 | 1665.5 ± 4 | 1643.4 ± 3.9 | 1621.8 ± 3.9
110000 kPa | – | – | – | – | 1719.2 ± 4 | 1696.9 ± 4 | 1674.6 ± 4 | 1653.6 ± 3.9
120000 kPa | – | – | – | – | 1748.7 ± 4.1 | 1726.9 ± 4.1 | 1705 ± 4 | 1684.3 ± 4
130000 kPa | – | – | – | – | 1777.4 ± 4.2 | 1755.8 ± 4.1 | 1734.4 ± 4.1 | 1713.8 ± 4
140000 kPa | – | – | – | – | 1805 ± 4.2 | 1783.8 ± 4.2 | 1763.3 ± 4.1 | 1742.7 ± 4.1
150000 kPa | – | – | – | – | 1832 ± 4.2 | 1811.1 ± 4.2 | 1790 ± 4.2 | 1770.5 ± 4.1
